In brackets after ≈: the same amount, converted by molar mass.

For the data set the following is noted: buffer; pH 7.4; 200.0 µM.
The kinetic solubility is solubility judged after dilution from a stock solution rather than from solid. On to `Cc1ccc(S(=O)(=O)Nc2ccccc2N2CCOCC2)cc1`, for which the kinetic solubility was 0.8 µg/mL (≈ 2.41 µM).
The value for `Clc1nc(-c2ccccc2)c2ccccc2n1` was 17.6 µg/mL (≈ 73.1 µM).
The value for `O=S(=O)(NCc1cccs1)c1ccc(Br)cc1` was 11.6 µg/mL (≈ 34.9 µM); that for `CC(=O)C(C)Oc1ccc(Cc2ncc(C(F)(F)F)cc2Cl)cc1` (centres undefined) was 13.1 µg/mL (≈ 36.6 µM); that for `Cc1ccc(C(=O)OC(C)C(=O)Nc2ccc3c(c2)OCO3)c(O)c1` (centres undefined) was 9.5 µg/mL (≈ 27.7 µM).
Under `Cc1cccc(CC(=O)NCC2CCCCC2)c1` stands greater than 36.8 µg/mL; under `NS(=O)(=O)c1ccc(CNC(=O)C2CCCN2C(=O)c2cccs2)cc1` (centres undefined), greater than 59 µg/mL.
Consider `CC(C(=O)NCC1CCCCC1)N(C)Cc1cccc(Cl)c1` (centres undefined), for which the solubility (kinetic) is 22.8 µg/mL (≈ 70.6 µM).
The value for `Cc1cccc(NC(=O)Cc2c(F)cccc2Cl)n1` was greater than 41.8 µg/mL; that for `Cn1c(NC(=O)c2ccc(F)cc2)c(-c2ccccn2)c(=O)c2ccccc21` was 6.2 µg/mL (≈ 16.6 µM).
The value for `COc1cccc(OCC(=O)NC2CCS(=O)(=O)C2)c1` (centres undefined) was greater than 44.9 µg/mL; that for `Cc1ccc(NC(=O)CCNC(=O)c2ccc(Cl)cc2)nc1` was 16.8 µg/mL (≈ 52.9 µM).
In turn, `O=C(Nc1ccc(F)cc1)c1ccc(S(=O)(=O)N2CCOCC2)o1` came in with a kinetic solubility greater than 53.2 µg/mL.
The compound `NC(=O)C1CCN(C(=O)c2cc3c(s2)CCCC3)CC1` registered a solubility (kinetic) of 43.7 µg/mL (≈ 149 µM).
Under `COc1cc(N)c(Cl)cc1C(=O)OCC(=O)c1cccs1` stands 4.2 µg/mL (≈ 12.9 µM).
The value for `Cc1cc(C(=O)N2CCc3ccccc3C2)no1` was greater than 36.3 µg/mL; that for `COc1ccccc1S(=O)(=O)N1CCn2cccc2C1C` (centres undefined) was greater than 46 µg/mL.
The compound `Clc1cccc(-c2nc(NCC3CCCO3)c3ccccc3n2)c1` (centres undefined) returned a kinetic solubility of 1.2 µg/mL (≈ 3.53 µM).
Regarding `CCSc1ncc(Cl)c(C(=O)Nc2cc(C)ccc2C)n1`, the kinetic solubility was less than 0.2 µg/mL.
The value for `O=C(OCc1ccc(Br)cc1)c1cccnc1` was 40.5 µg/mL (≈ 139 µM); that for `Nc1nc(CSc2ccc(Cl)cc2)nc(N2CCCCC2)n1` was 5.6 µg/mL (≈ 16.7 µM).
Under `O=C(COC(=O)Cc1ccc(Br)cc1)NCc1cccs1` stands 11.8 µg/mL (≈ 32 µM); under `O=c1[nH]c(/C=C/c2cccc([N+](=O)[O-])c2)c([N+](=O)[O-])c(=O)[nH]1`, 34.8 µg/mL (≈ 114 µM).
Under `CC(C)C(NC(=O)c1ccco1)C(=O)NCc1ccc(C(=O)O)cc1` (centres undefined) stands greater than 51.7 µg/mL; under `COc1ccc(CNC(=O)COC(=O)C2(C)CC2(Cl)Cl)cc1` (centres undefined), greater than 51.9 µg/mL; under `O=c1sc(Nc2ccccc2)nc2ccccc12`, 6.5 µg/mL (≈ 25.6 µM).
In turn, `CCc1ccc2nc(NC(=O)CN3C(=O)NC4(CCCC4)C3=O)sc2c1` had a kinetic solubility of 2.6 µg/mL (≈ 6.98 µM).
Under `CCc1noc(C)c1C(=O)Nc1ccccc1N1CCOCC1` stands greater than 47.3 µg/mL.
Under `CC(=O)c1ccccc1NC(=O)COC(=O)/C=C/c1ccc(C)o1` stands less than 0.7 µg/mL.
Under `O=C(CSc1nc2ccccc2s1)NCC1CCCO1` (centres undefined) stands greater than 46.3 µg/mL.
`N#Cc1c(-c2ccco2)ccn(Cc2ccc(F)cc2)c1=O` displayed a kinetic solubility of 9 µg/mL (≈ 30.6 µM).
The value for `Cc1csc(NC(=O)C2CCCCC2)n1` was 19.9 µg/mL (≈ 88.7 µM); that for `CCCc1cc(=O)[nH]c(SCC(=O)Nc2ccc(S(=O)(=O)N3CCCC3)cc2)n1` was 29 µg/mL (≈ 66.4 µM).
In turn, `CC1CCCCC1NC(=O)Cn1c(=O)cnc2ccccc21` (centres undefined) came in with a kinetic solubility of 5 µg/mL (≈ 16.7 µM).
Under `O=C(c1ccc(F)cc1)N(c1ccccn1)C1CCCCC1` stands 42.6 µg/mL (≈ 143 µM).
Under `Cc1cccc(NC(=O)CCc2ccccc2)c1C` stands 11.8 µg/mL (≈ 46.6 µM); under `CC1(C)CC(NS(=O)(=O)c2ccc(Cl)cc2)CC(C)(C)N1`, greater than 49.6 µg/mL.
Under `O=C1NC(c2ccc(Cl)cc2Cl)Oc2ccccc21` (centres undefined) stands 0.9 µg/mL (≈ 3.06 µM); under `Cc1ccc(O)c(CNc2cccc(C)n2)c1`, 22.5 µg/mL (≈ 98.6 µM); under `CC(C)CCOc1cccc(OCC(=O)Nc2ccncc2)c1`, 27.7 µg/mL (≈ 88.1 µM).
In the case of `O=C(NCc1ccco1)/C(=C/c1ccc(Cl)cc1)NC(=O)c1ccco1`, the solubility (kinetic) was determined as 4 µg/mL (≈ 10.8 µM).
The value for `Cn1c(=O)c2c(nc(N3CCOCC3)n2C/C=C/c2ccccc2)n(C)c1=O` was 51.9 µg/mL (≈ 136 µM).
The value for `Cc1ccc(NC(=O)Cn2cc([N+](=O)[O-])nc2C)cc1C` was 14.8 µg/mL (≈ 51.3 µM); that for `O=C(c1ccc(F)cc1)N1CCCC(c2ccccc2)C1` (centres undefined) was 36.3 µg/mL (≈ 128 µM); that for `COC(=O)[C@@H](NC(=O)N1CCC(Cc2ccccc2)CC1)C(C)C` was greater than 49.9 µg/mL.
The value for `O=Cc1cnc(N2CCCCC2)s1` was 27.6 µg/mL (≈ 141 µM); that for `COc1cc(C2C(C#N)=C(N)OC3=C2C(=O)CC(C)(C)C3)cc2c1OCO2` (centres undefined) was 21.6 µg/mL (≈ 58.6 µM).
In turn, `O=C(COC(=O)c1cccs1)Nc1cccc(Cl)c1` yielded a kinetic solubility of 7.6 µg/mL (≈ 25.7 µM).
Under `O=C(O)Cn1c(=O)c2c3c(sc2n(Cc2ccc(F)cc2)c1=O)CCCC3` stands greater than 58.3 µg/mL; under `COc1ccc(CCNCC2CCCO2)cc1.Cl` (centres undefined), 35.2 µg/mL.
Compound `CCc1ccc(N2C(=O)C3C(C2=O)N2CCCN2C3c2ccccc2)cc1` (centres undefined) yielded a kinetic solubility greater than 54.2 µg/mL.
`CCc1ccc(N(CC(=O)N2CCOCC2)S(C)(=O)=O)cc1` had a solubility (kinetic) greater than 49 µg/mL.
The value for `O=C(Nc1nccs1)[C@@H]1CCCN1C(=O)c1cccs1` was 30.6 µg/mL (≈ 99.5 µM).
The value for `CC1CCCN(C(=O)C2CC(=O)N(c3ccc(Cl)cc3)C2)C1` (centres undefined) was greater than 48.1 µg/mL.
Under `COCCNC(=O)C(OC(=O)C1=Cc2ccccc2OC1)C(C)C` (centres undefined) stands greater than 50 µg/mL; under `COc1ccc(C(=O)c2sc(Nc3ccccc3)nc2C)cc1`, 3.4 µg/mL (≈ 10.5 µM); under `COc1ccccc1/C=C/CN1CCCCC1`, 25.8 µg/mL (≈ 112 µM).
`CN1C2CCC1CC(NS(=O)(=O)c1cccc(C(F)(F)F)c1)C2` (centres undefined): the solubility (kinetic) was found to be 48.3 µg/mL (≈ 139 µM).
Under `CCOC(=O)c1c(C)n(C)c2cc(Br)c(OC)cc12` stands less than 0.7 µg/mL; under `CSc1cccc(N=C2C(=O)Nc3ccccc32)c1`, 33 µg/mL (≈ 123 µM).
Turning to `CC(NC(N)=O)C(=O)NCC(=O)OCc1ccccc1` (centres undefined), the solubility (kinetic) is greater than 41.9 µg/mL.
On to `CS(=O)(=O)Nc1ccccc1N=C(c1ccccc1)c1ccccc1`, for which the kinetic solubility was determined as 23.2 µg/mL (≈ 66.2 µM).
The compound `O=c1[nH]c(NCCO)nnc1Cc1ccc(Cl)cc1` yielded a kinetic solubility greater than 42.1 µg/mL.
The compound `CCCCNC(=O)O/N=C(\N)CS(=O)(=O)C(C)(C)C` registered a solubility (kinetic) of 36.5 µg/mL (≈ 124 µM).
Under `CCN(CC)c1ccc2c(Nc3ccccc3)c(C=O)c(=O)oc2c1` stands less than 0.4 µg/mL; under `CCCCn1cnc2c(oc3ccccc32)c1=O`, greater than 36.3 µg/mL.
Compound `CCOCCCNC(=O)C1CCN(S(=O)(=O)N2CCCC2)CC1` returned a kinetic solubility greater than 52.1 µg/mL.
Regarding `Cc1ccc(OCC(=O)Nc2cccnc2Cl)cc1C`, the solubility (kinetic) is 0.8 µg/mL (≈ 2.75 µM).
Turning to `COc1ccc(C2CC(C)=C(C#N)S(=O)(=O)C2C#N)cc1` (centres undefined), the solubility (kinetic) was greater than 45.4 µg/mL.
`O=[N+]([O-])c1cccc2c1ccc1ncccc12` gave a kinetic solubility of 1.3 µg/mL (≈ 5.8 µM).
Under `CCCCOC(=O)C1=C(C)NC(=O)NC1c1cccc([N+](=O)[O-])c1` (centres undefined) stands 12.3 µg/mL (≈ 36.9 µM); under `Brc1cccc(CNCc2ccncc2)c1`, greater than 41.6 µg/mL; under `CCOC(=O)N1CCN(C(=O)Cc2ccccc2[N+](=O)[O-])CC1`, greater than 48.2 µg/mL.
`O=C(N/N=C\c1ccc(O)c([N+](=O)[O-])c1)C1COc2ccccc2O1` (centres undefined) gave a kinetic solubility greater than 51.5 µg/mL.

Source of the values: PubChem BioAssay AID1996.
